Test results reported in patent publication US20240002326A1, “COMPOUNDS AND USE THEREOF IN METHODS OF TREATMENT” (The University of Queensland, priority 2016, published 2024).

How the values were obtained:
SOX18-MEF2C interaction = SOX18-MEF2C interaction (Homo sapiens (Human), UniProt P35713); experiment: ALPHAScreen SOX18-MEF2C protein-protein interaction; assay type: binding; settings: read-out: SOX18-MEF2C interaction disruption IC50
Source text: Proteins were genetically encoded with enhanced GFP (GFP), mCherry and cMyc (myc) tags, and cloned into cell free expression Gateway destination vectors: N-terminal GFP tagged (pCellFree_G03), N-terminal Cherry-cMyc (pCellFree_G07) and C-terminal Cherry-cMyc tagged (pCellFree_G08) (Gagoski et al., 2015). Human RBPJ (BC020780) and MEF2C (BC026341) Open Reading Frames (ORFs) were sourced from the Human ORFeome collection, version 1.1 and 5.1, and the Human Orfeome collaboration OCAA collection (Open Biosystems), as previously described (Sierecki et al., 2013) and cloned at the ARVEC facility, UQ Diamantina Institute. […]
ALPHAScreen was performed as previously described (Sierecki et al., 2014, Sierecki et al., 2013). […] Percentage of interaction was calculated as: (I_cpd/I_DMSO)×100 from 3 independent experiments.
ALPHAScreen was performed as previously described (Sierecki et al., 2014, Sierecki et al., 2013), using the cMyc detection kit and Proxiplate-384 Plus plates (PerkinElmer). […] The ALPHAScreen signal was measured on an Envision Plate Reader (PerkinElmer), using manufacturer's recommended settings (λexc=680/30 nm for 0.18 s, λem=570/100 nm after 37 ms). […]
I is the highest signal level (top of the hook effect curve) and Ineg is the lowest (background) signal level. […] Percentage of interaction was calculated as: […]

human COX2 = human COX2 (Homo sapiens (Human), UniProt P35354); experiment: COX2 enzymatic assay; assay type: biochemical; settings: up to a concentration of 200 μM
Method: COX inhibition activity was measured using COX1 and COX2 inhibitor screening assay kits from Cayman Chemical Company (Ref #701090 and 701080). All compounds were tested in quadruplicate at a single 200 μM concentration in 2% v/v final DMSO. Compounds were preincubated with ovine COX1 or human COX2 at 37° C. for 10 min before incubation with COX substrate arachidonic acid for another 3 min. Reactions were stopped by addition of concentrated hydrochloric acid. Prostanoid standard curve was prepared and enzyme immunoassay performed as per manufacturer's description. […] Prostanoid standards values were plotted as logit (B/B0) versus log concentrations and fitted with linear regression using GraphPad Prism version 6.0. Standard curve linear fit was used to calculate each samples concentrations.

[1] = test system: SOX binding site consensus DNA; experiment: Direct DNA-binding assay (SPR), consensus DNA; settings: biotinylated double-strand DNA on streptavidin chip
Method: Compounds were tested at a 1% v/v DMSO in HBS-EP buffer (10 mM HEPES, 150 mM NaCl, 3 mM EDTA, 0.005% v/v polysorbate 20, pH 7.4). The same buffer supplemented with 1% v/v DMSO was used as a mobile phase. DNA minor groove binder DAPI (4′,6-diamidino-2-phenylindole), DNA intercalator and minor groove binder actinomycin D, and DNA intercalator ethidium bromide were used as positive controls. Biotinylated (one tag per probe) double strand DNA probes were prepared using a standard annealing routine (5 min at 100° C., room temperature overnight and stored at −20° C.) of single strand anti-parallel DNA Probes purchased from Geneworks and were immobilized on CM5-SA streptavidin chips as per manufacturer's recommendations. […] All sample and control cycles were performed in triplicate. DMSO calibration was performed as per manufacturer's recommendations. After each injection, an extra flow system wash was performed with 50% v/v DMSO to avoid carryover. Experiments were run on a Biacore T200 (GE Healthcare, USA), with one flow cell kept as a reference.
From a molecular viewpoint, an inhibitor of SOX18-DNA binding could act either by interacting directly with the DNA, or the protein, or at the interface between protein and DNA. Binding of small molecules directly to the DNA, even though reported for other TFs (Leung et al., 2013), has the potential for unspecific DNA binding, leading to possible genotoxicity, mutagenicity, or carcinogenicity. For this reason, we developed a direct binding assays to determine whether the active compounds interact directly with DNA or protein. A surface plasmon resonance-based method was developed to analyse the binding of small molecules to biotinylated double stranded DNA immobilized on the surface of a streptavidin chip. The method measures the rate of binding (kon), dissociation (koff) and binding constant (KD), and was used to measure the binding to two different DNA sequences: SOX binding site consensus DNA, and scrambled DNA. Intercalating agents ethidium bromide and Actinomycin D, and the minor groove-binding agent 4′,6-diamino-2-phenylindole (DAPI) were used as positive controls for unselective DNA binding.

HepG2 = experiment: Cytotoxicity assay (Alamar blue), HepG2; assay type: cell-based; settings: HepG2, 24 h

human COX2, sequence (P35354 18-604): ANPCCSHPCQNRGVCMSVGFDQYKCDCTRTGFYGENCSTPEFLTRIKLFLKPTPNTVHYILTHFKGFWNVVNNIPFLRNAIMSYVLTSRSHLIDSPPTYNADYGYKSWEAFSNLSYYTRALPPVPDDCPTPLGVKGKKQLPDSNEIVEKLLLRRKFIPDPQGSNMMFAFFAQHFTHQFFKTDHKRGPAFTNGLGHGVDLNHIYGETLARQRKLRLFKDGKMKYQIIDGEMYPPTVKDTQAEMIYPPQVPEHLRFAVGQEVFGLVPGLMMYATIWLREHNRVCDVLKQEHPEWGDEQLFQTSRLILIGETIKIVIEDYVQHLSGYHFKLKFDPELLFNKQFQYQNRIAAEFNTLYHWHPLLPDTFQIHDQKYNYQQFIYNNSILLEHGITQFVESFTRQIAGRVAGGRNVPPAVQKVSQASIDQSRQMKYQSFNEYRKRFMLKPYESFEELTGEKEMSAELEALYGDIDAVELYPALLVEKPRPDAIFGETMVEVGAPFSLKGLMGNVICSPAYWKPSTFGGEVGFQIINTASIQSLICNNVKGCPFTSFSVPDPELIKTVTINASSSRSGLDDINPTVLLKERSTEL
SOX18-MEF2C interaction, sequence (P35713 whole entry): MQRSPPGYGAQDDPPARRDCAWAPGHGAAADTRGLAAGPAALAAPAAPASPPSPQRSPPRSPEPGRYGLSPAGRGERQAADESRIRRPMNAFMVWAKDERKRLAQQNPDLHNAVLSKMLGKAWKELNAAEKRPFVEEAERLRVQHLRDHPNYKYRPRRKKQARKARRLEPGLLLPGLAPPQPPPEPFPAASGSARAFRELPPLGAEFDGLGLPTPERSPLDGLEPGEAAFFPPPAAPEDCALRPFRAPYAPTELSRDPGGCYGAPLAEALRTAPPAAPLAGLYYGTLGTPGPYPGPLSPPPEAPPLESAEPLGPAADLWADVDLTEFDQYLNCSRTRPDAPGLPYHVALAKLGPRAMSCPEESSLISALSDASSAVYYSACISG

Q: How did the IC50 (SOX18-MEF2C interaction) turn out when O=C(O)c1ccccc1Nc1cccc(C(F)(F)F)c1 [Flufenamic acid, reference compound] was run?
A: Its IC50 is 29.1 µM.

Q: O=C(O)c1c(O)cccc1COCCc1ccccc1 [Sm5] was tested. Which COX-2 inhibitory activity (human COX2) did it give?
A: Its COX-2 inhibitory activity is “None of the SOX18 inhibitor display any COX-1 or COX-2 inhibitory activity”.

Q: What about the “binding to consensus DNA (SPR)” value [1] of the same molecule?
A: The value was “do not bind”.

Q: With CCN(CC)C(=O)c1c(O)cc(O)cc1CCc1ccc2ccccc2c1 [Sm26, N,N,diethyl-2,4-hydroxy-6-(2-(naphthalen-2-yl)ethyl)benzamide] as the molecule, how does the CC50 (HepG2) read?
A: The CC50 was 16.8 µM.
